Where two headings read alike, the source gives them in different places.
What was measured:
[1] = Drug storage stability in saline (accelerated stability trial)
Description: Consequently it was felt to be important to characterise the drug stability over time in aqueous solution as an indicator of likely issues with drug content and/or degradation products in the suspensions on storage.

[2] = Stability of drug aqueous solutions under autoclave conditions; format: physicochemical; conditions: saturated solution, 121° C./30 min
Description: Preferably, the study materials are sterile, at least to a large degree for preclinical studies. In the absence of a facility for complete aseptic manufacture, in order to sterilize the suspensions there are two possible approaches foreseen—autoclaving the final suspensions in ‘vial’, or gamma sterilization.

[3] = Stability of drug aqueous solutions under gamma irradiation; format: physicochemical; conditions: saturated aqueous solution, ~25 kGy at ambient temperature
Method: Preferably, the study materials are sterile, at least to a large degree for preclinical studies. In the absence of a facility for complete aseptic manufacture, in order to sterilize the suspensions there are two possible approaches foreseen—autoclaving the final suspensions in ‘vial’, or gamma sterilization. Consequently, in order to initially test the resistance of the drug to degradation in the ‘wet’ environment, drug in saturated solutions were prepared as for the storage stability studies above and subjected to autoclave conditions (121° C./30 min) or gamma irradiation (˜25 kGy at ambient temperature).
Gamma irradiation was conducted at a firm in Melbourne (Steritech; 160 South Gippsland Hwy, Dandenong Sth) and QC certificates provided verifying dose of gamma irradiation received. The samples were exposed to 25 kGy radiation, which severely discoloured the vials, in long term this method may be very suitable when an appropriate glass container, resistant to gamma rays, is used for sample preparation.

[4] = Particle sizing by laser light scattering; format: physicochemical; conditions: as received powder
[5] = Batch production: Av drug content per vial (RGA40/1); format: physicochemical; conditions: batch after freeze drying and gamma sterilization; specification 20.0 ± 2.0 mg
[6] = Batch production: particle size (RGA40/2); format: physicochemical; conditions: for Particle Size D(0.5): specification <20; for Particle Size D(0.9): specification <30
[7] = Batch production: pH (RGA40/3); format: physicochemical; conditions: specification 6.0-8.0
glucocorticoid receptor = biological target: T1, glucocorticoid receptor (Homo sapiens, UniProt P04150); assay: Glucocorticoid receptor activity (GR potency) of corticosterones; conditions: relative potency, hydrocortisone (cortisol) = 1
T1 sequence (P04150 1-777): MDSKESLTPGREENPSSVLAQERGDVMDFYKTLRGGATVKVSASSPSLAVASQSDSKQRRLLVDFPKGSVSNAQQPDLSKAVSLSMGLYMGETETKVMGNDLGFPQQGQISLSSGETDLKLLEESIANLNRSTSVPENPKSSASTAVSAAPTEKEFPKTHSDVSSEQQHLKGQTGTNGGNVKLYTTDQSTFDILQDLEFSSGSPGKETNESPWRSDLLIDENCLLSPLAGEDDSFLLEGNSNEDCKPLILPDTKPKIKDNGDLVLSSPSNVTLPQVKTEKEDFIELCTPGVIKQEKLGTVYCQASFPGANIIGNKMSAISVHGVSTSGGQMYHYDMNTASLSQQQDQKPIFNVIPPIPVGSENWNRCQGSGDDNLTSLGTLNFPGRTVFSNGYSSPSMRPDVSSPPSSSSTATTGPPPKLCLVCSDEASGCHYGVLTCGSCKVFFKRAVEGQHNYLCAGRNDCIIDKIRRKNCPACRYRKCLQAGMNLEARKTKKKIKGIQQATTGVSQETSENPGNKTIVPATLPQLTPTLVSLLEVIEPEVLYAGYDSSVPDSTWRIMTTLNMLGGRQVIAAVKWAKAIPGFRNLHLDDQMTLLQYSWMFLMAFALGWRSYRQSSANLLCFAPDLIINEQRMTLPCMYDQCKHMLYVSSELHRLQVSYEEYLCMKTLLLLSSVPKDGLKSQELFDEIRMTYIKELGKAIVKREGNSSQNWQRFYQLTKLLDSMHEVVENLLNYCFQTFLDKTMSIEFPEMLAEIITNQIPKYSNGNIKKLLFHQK

[8] = biological target: T2, mineralocorticoid receptor (Homo sapiens, UniProt P08235); assay: Mineralocorticoid receptor activity (MR potency) of corticosterones; conditions: relative potency, hydrocortisone (cortisol) = 1
T2 sequence (P08235 1-984): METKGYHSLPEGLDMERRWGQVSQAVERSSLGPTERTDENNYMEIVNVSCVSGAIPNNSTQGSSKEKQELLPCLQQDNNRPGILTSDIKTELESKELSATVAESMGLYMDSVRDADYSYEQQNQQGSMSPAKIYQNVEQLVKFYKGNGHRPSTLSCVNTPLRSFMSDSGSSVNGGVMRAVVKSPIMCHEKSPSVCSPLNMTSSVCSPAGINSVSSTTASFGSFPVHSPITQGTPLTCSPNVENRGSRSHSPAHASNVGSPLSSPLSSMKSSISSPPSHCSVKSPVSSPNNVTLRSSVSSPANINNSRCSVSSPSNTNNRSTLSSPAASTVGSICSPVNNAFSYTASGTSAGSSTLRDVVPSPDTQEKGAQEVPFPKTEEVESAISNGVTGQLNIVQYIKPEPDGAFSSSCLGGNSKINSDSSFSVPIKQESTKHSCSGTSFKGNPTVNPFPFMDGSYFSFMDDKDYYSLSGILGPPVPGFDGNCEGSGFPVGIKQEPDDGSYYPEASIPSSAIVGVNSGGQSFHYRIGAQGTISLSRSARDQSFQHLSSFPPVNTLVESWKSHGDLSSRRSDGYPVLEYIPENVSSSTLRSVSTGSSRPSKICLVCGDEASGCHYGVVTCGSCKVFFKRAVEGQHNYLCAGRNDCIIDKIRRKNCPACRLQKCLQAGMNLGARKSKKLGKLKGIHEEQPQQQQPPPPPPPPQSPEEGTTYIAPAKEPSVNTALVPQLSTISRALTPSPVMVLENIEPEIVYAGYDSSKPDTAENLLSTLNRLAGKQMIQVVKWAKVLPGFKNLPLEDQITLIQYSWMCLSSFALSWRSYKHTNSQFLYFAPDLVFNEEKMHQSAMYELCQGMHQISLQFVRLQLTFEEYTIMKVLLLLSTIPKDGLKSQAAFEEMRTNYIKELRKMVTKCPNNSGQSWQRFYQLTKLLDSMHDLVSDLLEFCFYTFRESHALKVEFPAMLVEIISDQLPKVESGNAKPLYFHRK

[9] = Aqueous solubility and solubility enhancement with hydroxy-propyl β-cyclodextrin in saline
Description: FIG. 1: Solubility enhancement for MR compounds and TA in saline with addition of hydroxy propyl β-cyclodextrin (data are mean±sd, n=3). Top: FLU and TA; Bottom: 11-DC; DCS and DCSA.

[10] = Stability of dry drug powders under gamma irradiation; format: physicochemical; conditions: 25 kGy
Description: The poor stability of most drugs under either autoclave or gamma irradiation when in contact with aqueous diluent led to a further set of stability studies to test the effect of gamma irradiation on the dry drug powders, with a view to providing the study materials as sterile powders for reconstitution immediately prior to administration.

[11] = system: New Zealand albino rabbit eyes; conditions: cited from earlier work
[12] = Duration of action (t1/2); conditions: in vivo; read-out: Duration of action (t1/2 in hours) (converted)

C[C@]12CCC(=O)C=C1CC[C@@H]1[C@@H]2CC[C@@]2(C)[C@H]1CC[C@]2(O)C(=O)CO [11-DC, 11-deoxycortisol]
drug concentration remaining, % of original concentration [1]: > 90% | stability of aqueous solution to autoclave conditions [2]: stable | initial drug content remaining after gamma irradiation [3]: less than 20% | D(v, 0.5) [4]: 81 microns | D(v, 0.9) [4]: 233 microns | Av Drug Content per vial [5]: Av Drug RGA40/1 20.0 ± 2.0 mg 18.4 ± 0.5 27 Oct. 2006 Passed | Particle Size D(0.5) [6]: Particle RGA40/2 D(0.5) = <20 7.1 3 Nov. 2006 Passed | Particle Size D(0.9) [6]: Size D(0.9) = <30 25 | pH [7]: pH RGA40/3 6.0-8.0 7.0 3 Nov. 2006 Passed

C[C@]12CCC(=O)C=C1CC[C@@H]1[C@@H]2[C@@H](O)C[C@]2(C=O)[C@@H](C(=O)CO)CC[C@@H]12 [Aldosterone]
GR potency (glucocorticoid receptor): 0.3 | MR potency [8]: 200-1000

C[C@H]1C[C@H]2[C@@H]3CCC4=CC(=O)C=C[C@]4(C)[C@@]3(Cl)[C@@H](O)C[C@]2(C)[C@@]1(O)C(=O)CO [Beclometasone]
GR potency (glucocorticoid receptor): 8 puffs 4 times a day;

C[C@]12CCC(=O)C=C1CC[C@@H]1[C@@H]2C(=O)C[C@@]2(C)[C@H]1CC[C@]2(O)C(=O)CO [Cortisone]
GR potency (glucocorticoid receptor): 0.8 | MR potency [8]: 0.8

C[C@]12CC[C@H]3[C@@H](CCC4=CC(=O)CC[C@@]43C)[C@@H]1CC[C@@H]2C(=O)CO [DCS, Deoxycorticosterone]
solubility relative to 11-DC and DCSA [9]: 4-8 fold | concentration in solution ([9]; saline with 50 mM HP-βCD): > 8000 µg/mL | stability of aqueous solution to autoclave conditions [2]: stable | D(v, 0.5) [4]: 22 microns | D(v, 0.9) [4]: 80 microns | Av Drug Content per vial [5]: Av Drug RGA40/1 20.0 ± 2.0 mg 18.5 ± 0.7 1 Nov. 2006 Passed | Particle Size D(0.5) [6]: Particle RGA40/2 D(0.5) = <20 12.7 3 Nov. 2006 Passed | Particle Size D(0.9) [6]: Size D(0.9) = <30 30.0 | pH [7]: pH RGA40/3 6.0-8.0 7.0 3 Nov. 2006 Passed

CC(=O)OCC(=O)[C@H]1CC[C@H]2[C@@H]3CCC4=CC(=O)CC[C@]4(C)[C@H]3CC[C@]12C [DCSA, deoxycorticosterone acetate]
GR potency (glucocorticoid receptor): 0 | MR potency [8]: 20 | aqueous solubility relative to the other compounds [9]: very low | plateau concentration in solution ([9]; 48 h): around 2 mg/mL | solubility ([9]; aqueous with cosolvent or surfactant or cyclodextrin, thermodynamic from solid): > 6000 µg/mL | stability of aqueous solution to autoclave conditions [2]: completely degraded to DCS | stability of aqueous solution to gamma irradiation [3]: completely degraded | stability of dry powder to gamma sterilization (drug content vs non-irradiated control) [10]: slight reduction in drug content | D(v, 0.5) [4]: 52 microns | D(v, 0.9) [4]: 226 microns | Av Drug Content per vial [5]: Av Drug RGA40/1 20.0 ± 2.0 mg 16 ± 0.9 2 Nov. 2006 Failed• | Particle Size D(0.5) [6]: Particle RGA40/2 D(0.5) = <20 8.25 3 Nov. 2006 Passed | Particle Size D(0.9) [6]: Size D(0.9) = <30 26.77 | pH [7]: pH RGA40/3 6.0-8.0 7.0 3 Nov. 2006 Passed

C[C@]12CCC(=O)C=C1CC[C@H]1[C@@H]3CC[C@](O)(C(=O)CO)[C@@]3(C)C[C@H](O)[C@@]12F [FLU, fludrocortisone]
drug concentration remaining, % of original concentration ([1]; saturated solution in saline, 60° C., after two weeks): 20% | stability in saline over time ([1]; saturated solution in saline, 60° C., up to 14 days): marked instability | stability of aqueous solution to autoclave conditions [2]: partly degraded | ERG in the other groups / other eyes ([11]; intravitreal 400 μg, 1 mg, 2 mg/0.1 ml and remaining eyes, two weeks after injection): no significant decrease in ERG | eyes with decreases in ERG ([11]; intravitreal 4 mg/0.1 ml, two weeks after injection): One | eyes with vitreous hemorrhage ([11]; intravitreal 4 mg/0.1 ml): one | signs of retinal toxicity on slit-lamp examination, indirect ophthalmoscopy or light microscopy ([11]; rabbit, in vivo): no signs of retinal toxicity

C[C@]12CCC(=O)C=C1CC[C@@H]1[C@@H]2[C@@H](O)C[C@@]2(C)[C@H]1CC[C@]2(O)C(=O)CO [Hydrocortisone (cortisol), Hydrocortisone]
GR potency (glucocorticoid receptor): 1 | MR potency [8]: 1 | half-life [12]: 8 h

C[C@H]1C[C@@H]2[C@H]([C@@H](O)C[C@@]3(C)[C@H]2CC[C@]3(O)C(=O)CO)[C@@]2(C)C=CC(=O)C=C12 [Methylprednisolone]
half-life [12]: 18 to 40 h

C[C@]12C=CC(=O)C=C1CC[C@@H]1[C@@H]2[C@@H](O)C[C@@]2(C)[C@H]1CC[C@]2(O)C(=O)CO [Prednisolone]
GR potency (glucocorticoid receptor): 4 | MR potency [8]: 0.8 | half-life [12]: 16 to 36 h

C[C@]12C=CC(=O)C=C1CC[C@@H]1[C@@H]2C(=O)C[C@@]2(C)[C@H]1CC[C@]2(O)C(=O)CO [Prednisone]
MR potency [8]: 0.8 | half-life [12]: 16 to 36 h

CC1(C)O[C@@H]2C[C@H]3[C@@H]4CCC5=CC(=O)C=C[C@]5(C)[C@@]4(F)[C@@H](O)C[C@]3(C)[C@]2(C(=O)CO)O1 [TA, triamcinolone acetonide]
absolute solubility (compared with FLU) [9]: lower overall | aqueous solubility relative to the other compounds [9]: very low | stability of aqueous solution to autoclave conditions [2]: moderately stable

C[C@]12C=CC(=O)C=C1CC[C@H]1[C@@H]3C[C@@H](O)[C@](O)(C(=O)CO)[C@@]3(C)C[C@H](O)[C@@]12F [Triamcinolone]
GR potency (glucocorticoid receptor): 5 | MR potency [8]: 0 | half-life [12]: 12 to 36 h
